Three compounds from paper PMC10107140, “Preparative‐Scale Biocatalytic Oxygenation of N‐Heterocycles with a Lyophilized Peroxygenase Catalyst” (Angewandte Chemie (International Ed. in English), 2022) can be followed below.

Common to all, as to format: biochemical
Experiment [1] concerns the target T1, rAaeUPO-PaDa-I-H (unspecific peroxygenase) (Cyclocybe aegerita, UniProt B9W4V6, F354L/I291V/L110F/V100A/V118I).
T1 construct: gene APO1; recombinant, expressed in Pichia pastoris, C-terminal histidine tag
Nature of the experiment: competition-based 5-nitro-1,3-benzodioxole peroxygenase assay; also converted to (R)-alcohol […].

Experiment [2] has as its target T1, rAaeUPO-PaDa-I-H (unspecific peroxygenase). Described as above. This is another data set of the same source.
The target is the same in experiment [3]. The experiment in a line: competition-based 5-nitro-1,3-benzodioxole peroxygenase assay.

T1 sequence (B9W4V6 44-371 V100A/L110F/V118I/I291V/F354L): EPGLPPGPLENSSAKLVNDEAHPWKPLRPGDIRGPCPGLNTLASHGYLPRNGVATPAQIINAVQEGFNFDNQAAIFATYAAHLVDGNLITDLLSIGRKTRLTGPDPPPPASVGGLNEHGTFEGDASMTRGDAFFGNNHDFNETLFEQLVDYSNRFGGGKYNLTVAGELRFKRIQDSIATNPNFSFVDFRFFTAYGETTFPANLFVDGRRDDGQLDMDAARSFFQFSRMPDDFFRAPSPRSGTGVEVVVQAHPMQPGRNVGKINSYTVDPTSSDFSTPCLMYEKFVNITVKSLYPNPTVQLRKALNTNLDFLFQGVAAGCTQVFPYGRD

`CCc1cccnc1` [compound 10, 3-ethylpyridine]: the IC50 (in general, the concentration that inhibits the measured activity by half) in experiment [1] is 700 µM.
In the case of `CCc1ccccn1` [compound 14, 2-ethylpyridine], the IC50 in experiment [2] came out at 29500 µM.
Regarding `CCc1ccncc1` [compound 6, 4-ethylpyridine], the IC50 in experiment [3] turned out to be 16 µM. In other words, the double-digit micromolar range.
